From patent US11319293B2, “Polymorps of cariprazine hydrochloride and preparation method thereof and use of same” (SHANGHAI BEGREAT PHARMATECH, priority 2018, dated 2022)
Structures can show the parent of a compound that is named as a salt.

How the values were obtained:
[1] = Powder flowability test (angle of repose); format: physicochemical; settings: for angle of repose: average of three determinations, α=arctg(H/R), hydrochloride; for flowability compared with forms I and II (in words): conclusion from angle of repose
Excerpt: Angle of repose is adopted widely to evaluate the powder flowability. When the angle of repose of the powder is less than or equal to 30 degrees, it means the flowability of this powder is good. While in case, 40 degrees or less of the powder angle of repose, this powder can satisfy the demand for fluidity in the production process. When the angle of repose of the powder is more than 40 degrees, it means the very poor flowability of the drug powder which may cause the troubles above mentioned during the drug manufacturing process.
Powder flowability test: A petri dish with a diameter of 7 cm in the bottom plate is used. Two glass funnels are staggered on top of each other and fixed on an iron stand. The distance between the lower funnel outlet and the bottom plate is between 3.5-6.0 cm. Take some cariprazine hydrochlorides in different crystal forms, and slowly add them from the upper funnel, so that the sample gradually accumulates on the chassis through the buffer of the two funnels to form a cone until the highest cone is obtained. Measure the height H of the cone. Determine three times for each sample, take the average, and calculate the angle of repose as follows: α=arctg(H/R) Among them, α is the angle of repose and R is the radius of the chassis.
When the angle of repose of the powder is less than or equal to 30 degrees, it means flowability of powder is good. The flowability requirement in the manufactured process can be satisfied when it is less than or equal to 40 degrees. If the angle of repose of powder is more than 40 degrees, it means flowability is poor.

schizophrenia = settings: cited from earlier work
bipolar disorder = settings: cited from earlier work
[2] = Dissolution and re-precipitation time in pH 6.5 buffer (simulated fasting small intestine); format: physicochemical; settings: for Dissolving time / Precipitate time: 5 mg crystal form in 80 mL pH 6.5 buffer solution; for Dissolving time: shaken slightly; for Precipitate time: time of re-precipitation, hydrochloride
Description: In Example 1, precipitation time for Form A and Forms I and II were compared under pH of simulated intestinal fluid. Take 5 mg of crystal forms A, I and II, and put them in 100-ml glass sample bottles, add 80 mL of pH 6.5 buffer solution (pH value of simulating fasting small intestine), and shake them slightly to observe precipitate. Dissolution status and time of re-precipitation were recorded.

Row | SMILES | angle of repose [1] | flowability compared with forms I and II (in words) [1] | most common adverse effects in the treatment of schizophrenia (schizophrenia; clinical trials) | symptoms of schizophrenia compared to placebo group (schizophrenia; six-week clinical trial, 1,754 participants, according to the FDA) | symptoms of bipolar disorder compared with placebo group (bipolar disorder; 6-week clinical trial, 1037 subjects) | most common adverse effects in the treatment of bipolar disorder (bipolar disorder; clinical trials) | Dissolving time [2] | Precipitate time [2] | maintenance of dissolved state under near-neutral conditions compared to Forms I and II (in words) ([2]; pH 6.5 buffer)
1 | CN(C)C(=O)N[C@H]1CC[C@H](CCN2CCN(c3cccc(Cl)c3Cl)CC2)CC1 [Form B, trans-N-{4-[2-[4-(2,3-dichlorophenyl)-piperazine-1-yl]-ethyl]-cyclohexyl}-N′,N′-dimethylurea hydrochloride] | 28° | significantly improve the flowability |  |  |  |  |  |  | 
2 | CN(C)C(=O)N[C@H]1CC[C@H](CCN2CCN(c3cccc(Cl)c3Cl)CC2)CC1 [Compound 1, hydrochloride] |  |  | extrapyramidal symptoms, including tremor, speech insufficiency, and dystonia | significantly reduces the symptoms of schizophrenia | significantly reduce the symptoms of bipolar disorder | extrapyramidal symptoms, manifested by inability to sit still, indigestion, vomiting, lethargy, and restlessness |  |  | 
3 | CN(C)C(=O)N[C@H]1CC[C@H](CCN2CCN(c3cccc(Cl)c3Cl)CC2)CC1 [Form A, trans-N-{4-[2-[4-(2,3-dichlorophenyl)-piperazine-1-yl]-ethyl]-cyclohexyl}-N′,N′-dimethylurea hydrochloride] | 35° | significantly improve the flowability |  |  |  |  | immediately | 10 min | significantly prolonged maintenance
4 | CN(C)C(=O)N[C@H]1CC[C@H](CCN2CCN(c3cccc(Cl)c3Cl)CC2)CC1 [Form II, cariprazine hydrochloride] | 40° |  |  |  |  |  | immediately | 1 min | 
5 | CN(C)C(=O)N[C@H]1CC[C@H](CCN2CCN(c3cccc(Cl)c3Cl)CC2)CC1 [Form I, cariprazine hydrochloride] | 40° |  |  |  |  |  | immediately | 1 min | 
6 | CN(C)C(=O)N[C@H]1CC[C@H](CCN2CCN(c3cccc(Cl)c3Cl)CC2)CC1 [Form C, trans-N-{4-[2-[4-(2,3-dichlorophenyl)-piperazine-1-yl]-ethyl]-cyclohexyl}-N′,N′-dimethylurea hydrochloride] | 31° | significantly improve the flowability |  |  |  |  |  |  | 
